Details: nicotine concentration increased from 100 microgram/mL to 14,000 microgram/mL

Structure (SMILES): CN1CCCC1c1cccnc1 (stereo not shown) [nicotine]
- change of permeability of nicotine across the buccal mucosa: decrease of about a factor of two
